Read-outs that look alike come from different tables or passages of the source.
Legend:
[1] = system: pressor response to angiotensin II; experiment: inhibition of pressor response to angiotensin II in conscious rats; assay type: in vivo; details: Rattus norvegicus, intravenous angiotensin II 250 mg/kg [sic], read-out: IC50 (dose needed to produce 50% inhibition of the control response to angiotensin II)
Method: (§1) Angiotensin II antagonist activity of the compounds of Formulas (I) is assessed by in vitro and in vivo methods. In vitro antagonist activity is determined by the ability of the compounds to compete with ^125 I-angiotensin II for binding to vascular angiotensin II receptors and by their ability to antagonize the contractile response to angiotensin II in the isolated rabbit aorta. In vivo activity is evaluated by the efficacy of the compounds to inhibit the pressor response to exogenous angiotensin II in conscious rats and to lower blood pressure in a rat model of renin dependent hypertension.
Rats are prepared with indwelling femoral arterial and venous catheters and a stomach tube (Gellai et al., KidneyInt. 15:419, 1979). Two to three days following surgery the rats are placed in a restrainer and blood pressure is continuously monitored from the arterial catheter with a pressure transducer and recorded on a polygraph. The change in mean arterial pressure in response to intravenous injections of […] angiotensin II is compared at various time points prior to and following the administration of the compounds intravenously or orally at doses of 3 to 300 mg/kg. The dose of compound needed to produce 50% inhibition of the control response to angiotensin II IC50) is used to estimate the potency of the compounds.

[2] = system: conscious rats made renin dependent hypertensive by ligation of the left renal artery; experiment: antihypertensive activity in conscious renin dependent hypertensive (renal artery ligated) rats; assay type: in vivo; details: Rattus norvegicus, 7-8 days after ligation, read-out: IC30 (dose needed to reduce mean arterial pressure by 30 mm Hg)
Method: as §1
The antihypertensive activity of the compounds is measured by their ability to reduce mean arterial pressure in conscious rats made renin dependent hypertensive by ligation of the left renal artery (Cangiano et al., J. Pharmacol. Exp. Ther. 208:310, 1979). Renal artery ligated rats are prepared with indwelling catheters as described above. Seven to eight days following renal artery ligation, the time at which plasma renin levels are highest, the conscious rats are placed in restrainers and mean arterial pressure is continuously recorded prior to and following the administration of the compounds intravenously or orally. The dose of compound needed to reduce mean arterial pressure by 30 mm Hg (IC30) is used as an estimate of potency. […]

Work on CCCCc1ncc(CN[C@@](C)(Cc2cccs2)C(=O)O)n1Cc1ccccc1Cl [Example 6, N-[{1-[(2-chlorophenyl)methyl]-2-n-butyl-1H-imidazol-5-yl}methyl]-α-methyl-β-(2-thienyl)alanine] yielded an ED50 ([1]; i.v.) of 11 mg/kg, an ED50 ([1]; po, orally) of 45 mg/kg and an ED (30 mm Hg) ([2]; iv) of 15 mg/kg. The ED (30 mm Hg) ([2]; po, orally) was 70 mg/kg.

From US5248689A, “Substituted N-(imidazolyl)alkyl alanine derivatives” (SmithKline Beecham Corporation, priority 1990, dated 1993)
